Calls of active or inactive are those of the source. No cut-off for these calls is given here.
Experiments:
Jurkat [1] = experiment: Induction of cell proliferation in human Jurkat T cells co-cultured with MDA-MB-231 cells assessed as increase in cell viability at < 5 uM after 48 hrs by CFSE staining based flow cytometric analysis; type: functional
MC-38 [2] = experiment: Antitumour activity against mouse MC38 cells implanted in C57BL6 mouse assessed reduction in tumor size at 10 to 25 mg/kg, IG for 16 days; type: functional, organism-based; details: dose 10-25 mg/kg, time 16.0 day
MC-38 [3] = experiment: Antitumour activity against mouse MC38 cells implanted in C57BL6 mouse assessed increase in CD4+CD8-Tim3+ cells at 10 to 25 mg/kg, IG for 16 days by flow cytometric analysis; type: functional, organism-based; details: dose 10-25 mg/kg, time 16.0 day
MC-38 [4] = experiment: Antitumour activity against mouse MC38 cells implanted in C57BL6 mouse assessed reduction in tumor growth at 10 to 25 mg/kg, IG for 16 days by PCNA staining based immunohistochemical analysis; type: functional, organism-based; details: dose 10-25 mg/kg, time 16.0 day
MC-38 [5] = experiment: Antitumour activity against mouse MC38 cells implanted in C57BL6 mouse assessed reduction in tumor growth at 10 to 25 mg/kg, IG for 16 days by Ki67 staining based immunohistochemical analysis; type: functional, organism-based; details: dose 10-25 mg/kg, time 16.0 day
Jurkat [6] = experiment: Induction of anti-CD3/CD28 antibodies-stimulated human Jurkat T cell activation co-cultured with MDA-MB-231 cells assessed as increase IFN-gamma protein expression in CD8+ cells at 5 uM after 48 hrs by flow cytometric analysis; type: functional, cell-based
MC-38 [7] = experiment: Antitumour activity against mouse MC38 cells implanted in C57BL6 mouse assessed reduction in tumor weight at 10 to 25 mg/kg, IG for 16 days; type: functional, organism-based; details: dose 10-25 mg/kg, time 16.0 day
Jurkat [8] = experiment: Induction of anti-CD3/CD28 antibodies-stimulated human Jurkat T cell activation co-cultured with MDA-MB-231 cells assessed as increase granzyme B protein expression in CD8+ cells at 5 uM in presence of PMA and ionomycin after 48 hrs by flow cytometric analysis; type: functional, cell-based
MC-38 [9] = experiment: Antitumour activity against mouse MC38 cells implanted in C57BL6 mouse assessed increase in CD4-CD8+Tim3+ cells at 10 to 25 mg/kg, IG for 16 days by flow cytometric analysis; type: functional, organism-based; details: dose 10-25 mg/kg, time 16.0 day
Jurkat [10] = experiment: Induction of anti-CD3/CD28 antibodies-stimulated human Jurkat T cell activation co-cultured with MDA-MB-231 cells assessed as increase IFN-gamma protein expression in CD8+ cells in presence of PMA and ionomycin at 5 uM after 48 hrs by flow cytometric analysis; type: functional, cell-based
MC-38 [11] = experiment: Antitumour activity against mouse MC38 cells implanted in C57BL6 mouse assessed decrease in CD4+CD8-PD1+ cells at 10 to 25 mg/kg, IG for 16 days by flow cytometric analysis; type: functional, organism-based; details: dose 10-25 mg/kg, time 16.0 day
Jurkat [12] = experiment: Induction of anti-CD3/CD28 antibodies-stimulated human Jurkat T cell activation co-cultured with MDA-MB-231 cells assessed as increase TNFalpha protein expression in CD8+ cells at 5 uM in presence of PMA and ionomycin after 48 hrs by flow cytometric analysis; type: functional, cell-based
Jurkat [13] = experiment: Induction of anti-CD3/CD28 antibodies-stimulated human Jurkat T cell activation co-cultured with MDA-MB-231 cells assessed as increase granzyme B protein expression in CD8+ cells at 5 uM after 48 hrs by flow cytometric analysis; type: functional, cell-based
Jurkat [14] = experiment: Induction of anti-CD3/CD28 antibodies-stimulated human Jurkat T cell activation co-cultured with MDA-MB-231 cells assessed as increase TNFalpha protein expression in CD8+ cells at 5 uM after 48 hrs by flow cytometric analysis; type: functional, cell-based
Jurkat [15] = experiment: Cytotoxicity against human Jurkat T cells co-cultured with MDA-MB-231 cells assessed as reduction in cell viability at 50 uM after 48 hrs by CFSE staining based flow cytometric analysis; type: toxicity
MC-38 [16] = experiment: Antitumour activity against mouse MC38 cells implanted in C57BL6 mouse assessed increase in CD4-CD8+PD-1+ cells at 10 to 25 mg/kg, IG for 16 days by flow cytometric analysis; type: functional, organism-based; details: dose 10-25 mg/kg, time 16.0 day
MC-38 [17] = experiment: Antitumour activity against mouse MC38 cells implanted in C57BL6 mouse assessed reduction in tumor weight at 25 mg/kg, IG for 16 days; type: functional, organism-based; details: time 16.0 day
MC-38 [18] = experiment: Antitumour activity against mouse MC38 cells implanted in C57BL6 mouse assessed reduction in tumor size at 25 mg/kg, IG for 16 days; type: functional, organism-based; details: time 16.0 day
MC-38 [19] = experiment: Antitumour activity against mouse MC38 cells implanted in C57BL6 mouse assessed increase in CD4+CD8- cells at 25 mg/kg, IG for 16 days by flow cytometric analysis; type: functional, organism-based; details: time 16.0 day
Jurkat [20] = experiment: Cytotoxicity against human Jurkat T cells co-cultured with MDA-MB-231 cells assessed as reduction in cell viability at 5 to 10 uM after 48 hrs by CFSE staining based flow cytometric analysis; type: toxicity; details: dose 5-10 µM
MC-38 [21] = experiment: Antitumour activity against mouse MC38 cells implanted in C57BL6 mouse assessed increase in CD4+CD8-Tim3+ cells at 25 mg/kg, IG for 16 days by flow cytometric analysis; type: functional, organism-based; details: time 16.0 day
[22] = Cytotoxicity against T cell (unknown origin); type: toxicity, cell-based, Homo sapiens; details: T cells
SK-BR-3 = experiment: Antiproliferative activity against human SK-BR-3 cells assessed as reduction in […]; type: functional, cell-based
MCF7 = experiment: Antiproliferative activity against human MCF7 cells assessed as reduction in […]; type: functional, cell-based
ZR-75-1 = experiment: Antiproliferative activity against human ZR-75-1 cells assessed as reduction in […]; type: functional, cell-based

SMILES | Activity (Jurkat [1]) | Activity (Jurkat [6]) | Activity (Jurkat [8]) | Activity (Jurkat [10]) | Activity (Jurkat [12]) | Activity (Jurkat [13]) | Activity (Jurkat [14]) | Activity (Jurkat [15]) | EC50 [22] | other results
Cc1c(COc2ccc(CN3Cc4ccccc4CC3C(=O)O)c(Oc3cc(=O)oc4ccccc34)c2)cccc1-c1ccccc1 (racemic) | Active |  |  |  |  |  |  |  |  | 
Cc1c(COc2ccc(CN3Cc4ccccc4C[C@@H]3C(=O)O)c(Oc3cc(=O)oc4c3ccc3ccccc34)c2)cccc1-c1ccccc1 | Active | Active | Active | Active | Active | Active | Active | Toxic |  | Activity (MC-38 [2]): Active; Activity (MC-38 [3]): Active; TGI (MC-38 [4]): Active; TGI (MC-38 [5]): Active; Activity (MC-38 [7]): Active; Activity (MC-38 [9]): Active; Activity (MC-38 [11]): Active; Activity (MC-38 [16]): Active
O=C(O)[C@@H]1Cc2ccccc2CN1Cc1ccc(OCc2cccc(-c3ccccc3)c2Br)cc1Oc1cc(=O)oc2c1ccc1ccccc12 |  | Active | Active | Active | Active | Active | Active | Toxic |  | 
COc1nc(OCc2cccc(-c3ccccc3)c2C)ccc1CNCCNC(C)=O |  | Active | Active | Active | Active | Active | Active |  | 11 nM | Activity (MC-38 [17]): Active; Activity (MC-38 [18]): Active; Activity (MC-38 [19]): Active; Activity (Jurkat [20]): Non-Toxic; Activity (MC-38 [21]): Active
Cc1c(COc2cc(OCc3cccc(C#N)c3)c(CN3C[C@@H](O)C[C@H]3C(=O)O)cc2Cl)cccc1-c1ccc2c(c1)OCCO2 |  |  |  |  |  |  |  |  | 1.4 nM | 
CCc1cccc2c1ccc1c3occ(C)c3c(=O)oc21 |  |  |  |  |  |  |  |  |  | EC50 (SK-BR-3): 0.1 µg/mL; EC50 (MCF7): 0.45 µg/mL; EC50 (ZR-75-1): 0.18 µg/mL

From ChEMBL document CHEMBL5143556, “Molecular hybridization used to design and synthesize neo-tanshinlactone derivatives as PD-1/PD-L1 inhibitors” (Bioorg Med Chem, 2022)
